Data as given in patent publication US20250163074A1, “CDK Inhibitors And Their Use As Pharmaceuticals” (Prelude Therapeutics Incorporated, priority 2020, published 2025).

Columns and labels:
CDK4/Cyclin D1 = CDK4/Cyclin D1 (Homo sapiens (Human), UniProt P11802); assay: CDK4/CyclinD1 enzymatic activity assay (TR-FRET); format: biochemical; details: CDK4/CyclinD1 1 nM, ATP 2 mM, read-out: CDK4_D1 IC50
How it was run: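 Insect-cell CDK4/Cyclin D1 (1 nM) with ULight-4E-BP1 (100 nM) and 2 mM ATP in HEPES pH 7.4 buffer, preincubated 20 min with compound (9-dose, 3-fold dilutions); 10 mM MgCl2 started the reaction, run 60 min at 37 °C. EDTA/Eu-anti-phospho-4E-BP1 TR-FRET detection; IC50 from 4-parameter Hill fit.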

[1] = test system: MCF7 adenocarcinoma cell line; assay: Cell proliferation studies in MCF7 cells (ATP-Lite); format: cell-based; details: Homo sapiens, 240 h, 10 days incubation, cell viability by ATP-Lite luminescence, read-out: PROLIFERATION_CTG_MCF7 IC50
How it was run: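 MCF7 cells, seeded at 100 or 200 cells/well, were exposed for 10 days at 37 °C to a 9-point, 3-fold dilution series in quadruplicate, with media exchange and re-dosing on day 5. Viability was read by ATP-Lite luminescence, normalized to background and DMSO, and fitted for IC50.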

CDK6/Cyclin D1 = CDK6/Cyclin D1 (Homo sapiens (Human), UniProt Q00534); assay: CDK6/CyclinD1 enzymatic activity assay (TR-FRET); format: biochemical; details: CDK6/Cyclin D1 1 nM, ATP 250 μM, read-out: CDK6_D1 IC50
Sequence of CDK6/Cyclin D1 (Q00534 whole entry): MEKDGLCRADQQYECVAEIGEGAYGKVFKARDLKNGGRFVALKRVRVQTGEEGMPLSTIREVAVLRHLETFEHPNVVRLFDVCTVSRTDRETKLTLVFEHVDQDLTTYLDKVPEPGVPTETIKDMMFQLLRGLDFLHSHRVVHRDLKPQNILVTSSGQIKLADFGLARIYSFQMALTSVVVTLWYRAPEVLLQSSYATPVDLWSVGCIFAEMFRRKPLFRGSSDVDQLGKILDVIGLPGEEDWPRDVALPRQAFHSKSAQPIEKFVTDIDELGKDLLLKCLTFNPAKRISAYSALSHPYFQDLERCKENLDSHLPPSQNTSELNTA
Sequence of CDK6/Cyclin D1 (P24385 whole entry partner): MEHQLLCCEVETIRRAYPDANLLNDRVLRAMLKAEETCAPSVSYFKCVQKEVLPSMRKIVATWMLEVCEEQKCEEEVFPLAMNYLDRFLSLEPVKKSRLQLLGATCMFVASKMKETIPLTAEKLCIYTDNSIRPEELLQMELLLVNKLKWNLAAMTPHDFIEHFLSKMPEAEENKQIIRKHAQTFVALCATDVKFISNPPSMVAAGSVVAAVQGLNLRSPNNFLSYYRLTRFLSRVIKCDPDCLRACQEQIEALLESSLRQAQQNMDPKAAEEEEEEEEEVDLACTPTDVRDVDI
Experimental: CDK6/CyclinD1 Enzymatic Activity Assay
The inhibitory activity of compounds was evaluated in vitro using TR-FRET assay with white 384-well low volume microplate (Greiner Bio-One). CDK6/Cyclin D1 catalyzed phosphorylation of peptide in the presence and absence of compounds was measured and used in IC50 determination. Recombinant protein complex CDK6/Cyclin D1, expressed from insect cell, was purchased from ProQinase. Testing compounds were dissolved in DMSO at 0.1 mM and tested in 9-dose IC50 mode. The reaction mixture was prepared by mixing CDK6/Cyclin D1 (1 nM final), ULight-4E-BP1 (100 nM final, Perkinelmer, TRF0128-D), and ATP (250 μM final) in assay buffer (20 mM of HEPES pH 7.4, 1 mM of EGTA, 0.05% BSA, 0.005% Tween 20, and 1 mM TCEP). The compound of interest in DMSO was added to each well in 3-fold serial dilution by dispenser (TECAN D300E). After 20 minutes preincubation at room temperature, 0.1 μL MgCl2 (10 mM final) was added to initiate the reaction. Following a 60 minutes incubation at 37° C., the reaction was stopped by addition of 2 μL of quenching buffer consisting of Lance detection buffer (Perkinelmer CR97-100C), 2 nM LANCE Ultra Europium-anti-P-4E-BP1 (Perkinelmer, TRF0216-D), 10 mM EDTA, and incubate at room temperature for additional 60 minutes in dark. The reaction signal was measured by Envision multimode plate reader (PerkinElmer, 2102-0010). IC50 values were determined by fitting the data to the standard 4 parameters with Hill Slope using GraphPad Prism software.

[2] = Brain-to-plasma ratio determination in Sprague-Dawley rats; format: in vivo; details: rat, male Sprague-Dawley rats, four hours after a single oral dose (3, 4, 5, or 10 mg/kg)
Experimental: Example B: Brain-to-Plasma Ratio Determination in Sprague-Dawley Rats
The brain-to-plasma ratio (Kp) was determined in male Sprague-Dawley rats (7-9 weeks old) four hours after a single oral dose. Rats were acclimated and given free access to standard rodent chow and water throughout the entire study. Test articles were formulated as a solution at 0.3, 0.4, 0.5, or 1.0 mg/mL in a vehicle comprised of 10:15:75 (v:v:v) dimethylacetamide (DMA):Solutol HS15:water and delivered orally at a rate of 10 mL/kg to three rats to achieve final doses of 3, 4, 5, or 10 mg/kg, respectively. At 4 hours post-dose, blood samples were collected via jugular vein cannula into tubes containing K2EDTA as the anticoagulant and stored on ice. Blood samples were then centrifuged at 4° C. at 6000 rpm for 5 minutes, and the resulting plasma was placed into tubes and stored frozen at −80° C. until analysis. Whole brain samples were also collected at 4 hours post-dose. The weight of each brain was measured and recorded, and samples were immediately stored on dry ice. Brain samples were then transferred to storage at −80° C. until analysis.
Prior to analysis, brain samples were combined with water (4 mL/1 gram of brain) and homogenized. Prior to injection, plasma and brain homogenate samples and standards were prepared for analysis by precipitation with acetonitrile or 1:1 (v:v) methanol:acetonitrile. Samples were then thoroughly mixed, centrifuged at 4000 rpm for 15 minutes, and the resulting supernatant was transferred for analysis. Test article concentrations in plasma and brain homogenate were then determined by LC-MS/MS and quantified against calibration standards prepared to known concentrations in matched blank (analyte-free) biological matrix. The Kp was then determined by dividing the dilution-corrected brain concentration by the plasma concentration from each rat. A brain density of 1 gram/mL was assumed for all calculations.

Sequence of CDK4/Cyclin D1 (P11802 whole entry): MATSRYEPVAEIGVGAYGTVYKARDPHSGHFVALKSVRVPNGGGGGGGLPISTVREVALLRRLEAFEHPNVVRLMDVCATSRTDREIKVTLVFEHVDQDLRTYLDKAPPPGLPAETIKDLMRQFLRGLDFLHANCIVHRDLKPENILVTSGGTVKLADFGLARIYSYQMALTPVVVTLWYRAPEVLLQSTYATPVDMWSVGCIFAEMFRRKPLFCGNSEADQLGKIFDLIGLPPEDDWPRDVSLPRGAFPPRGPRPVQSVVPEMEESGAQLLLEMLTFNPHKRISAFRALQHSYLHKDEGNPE
Sequence of CDK4/Cyclin D1 (P24385 whole entry partner): as the sequence (P24385 whole entry partner) above

IC50 (CDK4/Cyclin D1) [nM]	IC50 [1] [nM]	IC50 (CDK6/Cyclin D1) [nM]	Kp at 4 h [2]	Compound
≤ 20	20 to 200	≤ 20	1 to 3	CCN1CC2(C1)CN(c1ccc(Nc3ncc(F)c(-c4cc5c(s4)C4(CCCC4)CN(C)C5=O)n3)nc1)C2 [Example 1, 2′-(2-((5-(6-Ethyl-2,6-diazaspiro[3.3]heptan-2-yl)pyridin-2-yl)amino)-5-fluoropyrimidin-4-yl)-5′-methyl-5′,6′-dihydro-4′H-spiro[cyclopentane-1,7′-thieno[3,2-c]pyridin]-4′-one]
≤ 20	20 to 200	≤ 20	1 to 3	CN1CCC(c2ccc(Nc3ncc(F)c(-c4cc5c(s4)C4(CCCC4)CN(C)C5=O)n3)nc2)CC1 [Example 2, 2′-(5-Fluoro-2-((5-(1-methylpiperidin-4-yl)pyridin-2-yl)amino)pyrimidin-4-yl)-5′-methyl-5′,6′-dihydro-4′H-spiro[cyclopentane-1,7′-thieno[3,2-c]pyridin]-4′-one]
≤ 20	20 to 200	≤ 20	≥ 3	CCN1CCN(c2ccc(Nc3ncc(F)c(-c4cc5c(s4)C4(CCCC4)CN(C)C5=O)n3)nc2)CC1 [Example 3, 2′-(2-((5-(4-Ethylpiperazin-1-yl)pyridin-2-yl)amino)-5-fluoropyrimidin-4-yl)-5′-methyl-5′,6′-dihydro-4′H-spiro[cyclopentane-1,7′-thieno[3,2-c]pyridin]-4′-one]
≤ 20	20 to 200	20 to 200	1 to 3	CCN1CC2(C1)CN(c1ccc(Nc3ncc(F)c(-c4cc5c(s4)C4(CCCCC4)CN(C)C5=O)n3)nc1)C2 [Example 4, 2′-(2-((5-(6-Ethyl-2,6-diazaspiro[3.3]heptan-2-yl)pyridin-2-yl)amino)-5-fluoropyrimidin-4-yl)-5′-methyl-5′,6′-dihydro-4′H-spiro[cyclohexane-1,7′-thieno[3,2-c]pyridin]-4′-one]
≤ 20	20 to 200	≤ 20	1 to 3	Cc1c(-c2nc(Nc3ccc(C4CCN(C)CC4)cn3)ncc2F)sc2c1C(=O)N(C)C21CC1 [Example 6, 2′-(5-Fluoro-2-((5-(1-methylpiperidin-4-yl)pyridin-2-yl)amino)pyrimidin-4-yl)-3′,5′-dimethylspiro[cyclopropane-1,6′-thieno[2,3-c]pyrrol]-4′(5′H)-one]
≤ 20	20 to 200	≤ 20	1 to 3	CCN1C(=O)c2c(sc(-c3nc(Nc4ccc(C5CCN(C)CC5)cn4)ncc3F)c2C)C12CC2 [Example 7, 5′-Ethyl-2′-(5-fluoro-2-((5-(1-methylpiperidin-4-yl)pyridin-2-yl)amino)pyrimidin-4-yl)-3′-methylspiro[cyclopropane-1,6′-thieno[2,3-c]pyrrol]-4′(5′H)-one]
≤ 20	≤ 20	≤ 20	< 1	CCN1CC2(C1)CN(c1ccc(Nc3ncc(F)c(-c4sc5c(c4C)C(=O)N(C)C54CC4)n3)nc1)C2 [Example 12, 2′-(2-((5-(6-Ethyl-2,6-diazaspiro[3.3]heptan-2-yl)pyridin-2-yl)amino)-5-fluoropyrimidin-4-yl)-3′,5′-dimethylspiro[cyclopropane-1,6′-thieno[2,3-c]pyrrol]-4′(5′H)-one]
≤ 20	≤ 20	–	1 to 3	Cc1c(-c2nc(Nc3ccc(N4CC5(CCN(C)C5)C4)cn3)ncc2F)sc2c1C(=O)N(C)C21CC1 [Example 14, 2′-(5-Fluoro-2-((5-(6-methyl-2,6-diazaspiro[3.4]octan-2-yl)pyridin-2-yl)amino)pyrimidin-4-yl)-3′,5′-di methyl spiro[cyclopropane-1,6′-thieno[2,3-c]pyrrol]-4′(5′H)-one]
≤ 20	20 to 200	–	1 to 3	Cc1c(-c2nc(Nc3ccc(C4CCCN(C)C4)cn3)ncc2F)sc2c1C(=O)N(C)C21CC1 (stereo not shown) [Example 15, 2′-(5-Fluoro-2-((5-(1-methylpiperidin-3-yl)pyridin-2-yl)amino)pyrimidin-4-yl)-3′,5′-dimethylspiro[cyclopropane-1,6′-thieno[2,3-c]pyrrol]-4′(5′H)-one]
≤ 20	20 to 200	–	1 to 3	CCN1C(=O)c2cc(-c3nc(Nc4ccc(C5CCCN(C)C5)cn4)ncc3C)sc2C12CC2 (stereo not shown) [Example 18, 5′-Ethyl-2′-[5-methyl-2-[[5-(1-methylpiperidin-3-yl)pyridin-2-yl]amino]pyrimidin-4-yl]spiro[cyclopropane-1,6′-thieno[2,3-c]pyrrole]-4′-one]
≤ 20	20 to 200	20 to 200	–	CN1CCC(c2ccc(Nc3ncc(F)c(-c4cc5c(n4C)C4(CCCC4)CN(C)C5=O)n3)nc2)CC1 [Example 74, 2′-(5-Fluoro-2-((5-(1-methylpiperidin-4-yl)pyridin-2-yl)amino)pyrimidin-4-yl)-1′,5′-dimethyl-5′,6′-dihydrospiro[cyclopentane-1,7′-pyrrolo[3,2-c]pyridin]-4′(1′H)-one]
≤ 20	20 to 200	20 to 200	–	CN1CCC(c2ccc(Nc3ncc(F)c(-c4cc5c(s4)C4(CCOCC4)CN(C)C5=O)n3)nc2)CC1 [Example 77, 2′-(5-Fluoro-2-((5-(1-methylpiperidin-4-yl)pyridin-2-yl)amino)pyrimidin-4-yl)-5′-methyl-2,3,5,5′,6,6′-hexahydro-4′H-spiro[pyran-4,7′-thieno[3,2-c]pyridin]-4′-one]
≤ 20	≤ 20	20 to 200	–	Cc1cnc(Nc2ccc(C3CCN(C)CC3)cn2)nc1-c1cc2c(s1)C1(CC1)N(C)C2=O [Example 80, 5′-Methyl-2′-(5-methyl-2-((5-(1-methylpiperidin-4-yl)pyridin-2-yl)amino)pyrimidin-4-yl)spiro[cyclopropane-1,6′-thieno[2,3-c]pyrrol]-4′(5′H)-one]
≤ 20	20 to 200	≤ 20	–	CCN1CC2(C1)CN(c1ccc(Nc3ncc(F)c(-c4cc5c(s4)C4(CCCC4)CN(C)C5=O)n3)nn1)C2 [Example 82, 2-[2-[[6-(6-Ethyl-2,6-diazaspiro[3.3]heptan-2-yl)pyridazin-3-yl]amino]-5-fluoropyrimidin-4-yl]-5-methylspiro[6H-thieno[3,2-c]pyridine-7,1′-cyclopentane]-4-one]
≤ 20	20 to 200	20 to 200	–	CCN1CCN(c2ccc(Nc3ncc(F)c(-c4cc5c(s4)C4(CCCC4)CN(C)C5=O)n3)nc2)C(=O)C1 [Example 86, 2-[2-[[5-(4-Ethyl-2-oxopiperazin-1-yl)pyridin-2-yl]amino]-5-fluoropyrimidin-4-yl]-5-methylspiro[6H-thieno[3,2-c]pyridine-7,1′-cyclopentane]-4-one]
